Experimental data from ChEMBL document CHEMBL1137879, “The development of new bicyclic pyrazole-based cytokine synthesis inhibitors” (Bioorg Med Chem Lett, 2004).

Key:
THP-1 = assay: Concentration required to inhibit production of Tumor necrosis factor, alpha in LPS-stimulated human monocytic cells (THP-1); assay type: functional, cell-based
[1] = target: Mitogen-activated protein kinase 14 (Homo sapiens, UniProt Q16539); assay: Inhibition of human Mitogen-activated protein kinase p38 alpha
Mitogen-activated protein kinase 14, sequence (Q16539 whole entry): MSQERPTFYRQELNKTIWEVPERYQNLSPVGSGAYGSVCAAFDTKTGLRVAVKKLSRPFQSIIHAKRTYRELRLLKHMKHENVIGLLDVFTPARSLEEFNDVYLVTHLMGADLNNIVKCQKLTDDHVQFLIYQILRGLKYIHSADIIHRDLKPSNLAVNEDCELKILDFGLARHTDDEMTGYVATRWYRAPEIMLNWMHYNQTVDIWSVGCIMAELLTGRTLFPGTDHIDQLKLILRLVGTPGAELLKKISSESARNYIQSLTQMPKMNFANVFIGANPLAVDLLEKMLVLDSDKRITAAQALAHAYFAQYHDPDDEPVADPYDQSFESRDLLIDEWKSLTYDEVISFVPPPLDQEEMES

| SMILES | IC50 (THP-1) | IC50 [1] |
| --- | --- | --- |
| Fc1ccc(-c2c(-c3ccnc(Oc4ccccc4)n3)nn3c2OCCC3)cc1 | > 10000 nM | 6600 nM |
| Fc1ccc(-c2c(-c3ccnc(Oc4ccccc4)n3)nn3c2OCC3)cc1 | 300 nM | 2200 nM |
| C[C@@H](Nc1nccc(-c2nn3c(c2-c2ccc(F)cc2)OCC3)n1)c1ccccc1 | > 2000 nM | 11200 nM |
| COC[C@@H](C)Nc1nccc(-c2nn3c(c2-c2ccc(F)cc2)OCC3)n1 | 1700 nM | 280 nM |
| CCOCn1nnc(-c2ccncc2)c1-c1ccc(F)cc1 | – | 310 nM |
| Oc1[nH]nc(-c2ccncc2)c1-c1ccc(F)cc1 | 3100 nM | 320 nM |
| Fc1ccc(-c2c(-c3ccncc3)nn3c2OCCC3)cc1 | 3100 nM | 460 nM |
| CC[C@@H](C)Nc1nccc(-c2nn3c(c2-c2ccc(F)cc2)OCC3)n1 | 80 nM | 360 nM |
